Values joined by “and” are separate entries in the source; they are usually repeats but may differ in a detail not shown here. Identical values can stand only once. “Also recorded” adds a separate entry of the source.
Legend:
cathepsin B = biological target: T1, cathepsin B (Homo sapiens, UniProt P07858); test: biochemical; conditions: 192.4 pM enzyme, 20 µM Z-RR-4MBNA; for Inhibition of cathepsin B at 25 µM (in words): pH 6.0, 30 °C
T1 construct: purchased Athens research and technology 16-12-030102

cathepsin L = biological target: T2, cathepsin L (Homo sapiens, UniProt P07711); test: biochemical; conditions: 200 pM enzyme, 10 µM Z-FR-AFC; for Inhibition of cathepsin L at 25 µM (in words): pH 5.5, 30 °C
T2 construct: purchased Athens research and technology 16-12-030112
T2 sequence (P07711 114-333): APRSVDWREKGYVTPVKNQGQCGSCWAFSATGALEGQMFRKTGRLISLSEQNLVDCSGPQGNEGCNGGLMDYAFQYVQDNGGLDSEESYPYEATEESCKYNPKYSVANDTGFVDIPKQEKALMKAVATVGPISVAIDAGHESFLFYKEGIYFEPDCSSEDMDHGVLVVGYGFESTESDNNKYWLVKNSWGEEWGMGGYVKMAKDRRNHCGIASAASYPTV

papain = biological target: T3, papain (Carica papaya, UniProt P00784); test: biochemical; conditions: 200 pM enzyme, 10 µM Z-FR-AFC; for Inhibition of papain at 25 µM (in words): pH 7, 30 °C; for IC50: 50 mM sodium phosphate pH 7, 1 mM EDTA, 2 mM DTT, 30 °C, 15 min preincubation at room temperature, fluorescence, meaning of ± and n not given, read-out: IC50, inhibition of papain
T3 construct: purchased Sigma P4762-25MG
T3 sequence (P00784 134-345): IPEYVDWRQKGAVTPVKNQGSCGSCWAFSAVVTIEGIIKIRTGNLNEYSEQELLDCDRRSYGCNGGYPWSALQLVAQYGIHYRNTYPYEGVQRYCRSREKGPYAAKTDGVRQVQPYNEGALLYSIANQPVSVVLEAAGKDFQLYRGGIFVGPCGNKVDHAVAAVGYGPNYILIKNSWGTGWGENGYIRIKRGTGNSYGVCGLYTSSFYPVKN

trypsin = type: biochemical; conditions: 500 pM enzyme, 10 µM Boc-QAR-AMC, Tris HCl pH 8, 30 °C
chymotrypsin = type: biochemical; conditions: 1 nM enzyme, 10 µM Suc-AAPF-AMC, Tris HCl pH 8, 30 °C
[1] = tested on: main protease from SARS CoV‐2 (M^pro); type: biochemical
ApyO [2] = type: biochemical, Burkholderia thailandensis E264; conditions: pH 7.5
[3] = tested on: proteases (trypsin, chymotrypsin, papain, cathepsin B, cathepsin L, ACE, M^pro); type: biochemical
ApyO [4] = type: biochemical, Burkholderia thailandensis E264; conditions: pH 7.5; remark: listed apart in the source
[5] = biological target: T4, angiotensin I‐converting enzyme (ACE) (Oryctolagus cuniculus, UniProt P12822); type: biochemical; conditions: 0.4 mU/mL enzyme, 10 µM Abz-FRK(Dnp)-P-OH, pH 7.5, 37 °C
T4 construct: purchased Sigma A6778
T4 sequence (P12822 34-1310): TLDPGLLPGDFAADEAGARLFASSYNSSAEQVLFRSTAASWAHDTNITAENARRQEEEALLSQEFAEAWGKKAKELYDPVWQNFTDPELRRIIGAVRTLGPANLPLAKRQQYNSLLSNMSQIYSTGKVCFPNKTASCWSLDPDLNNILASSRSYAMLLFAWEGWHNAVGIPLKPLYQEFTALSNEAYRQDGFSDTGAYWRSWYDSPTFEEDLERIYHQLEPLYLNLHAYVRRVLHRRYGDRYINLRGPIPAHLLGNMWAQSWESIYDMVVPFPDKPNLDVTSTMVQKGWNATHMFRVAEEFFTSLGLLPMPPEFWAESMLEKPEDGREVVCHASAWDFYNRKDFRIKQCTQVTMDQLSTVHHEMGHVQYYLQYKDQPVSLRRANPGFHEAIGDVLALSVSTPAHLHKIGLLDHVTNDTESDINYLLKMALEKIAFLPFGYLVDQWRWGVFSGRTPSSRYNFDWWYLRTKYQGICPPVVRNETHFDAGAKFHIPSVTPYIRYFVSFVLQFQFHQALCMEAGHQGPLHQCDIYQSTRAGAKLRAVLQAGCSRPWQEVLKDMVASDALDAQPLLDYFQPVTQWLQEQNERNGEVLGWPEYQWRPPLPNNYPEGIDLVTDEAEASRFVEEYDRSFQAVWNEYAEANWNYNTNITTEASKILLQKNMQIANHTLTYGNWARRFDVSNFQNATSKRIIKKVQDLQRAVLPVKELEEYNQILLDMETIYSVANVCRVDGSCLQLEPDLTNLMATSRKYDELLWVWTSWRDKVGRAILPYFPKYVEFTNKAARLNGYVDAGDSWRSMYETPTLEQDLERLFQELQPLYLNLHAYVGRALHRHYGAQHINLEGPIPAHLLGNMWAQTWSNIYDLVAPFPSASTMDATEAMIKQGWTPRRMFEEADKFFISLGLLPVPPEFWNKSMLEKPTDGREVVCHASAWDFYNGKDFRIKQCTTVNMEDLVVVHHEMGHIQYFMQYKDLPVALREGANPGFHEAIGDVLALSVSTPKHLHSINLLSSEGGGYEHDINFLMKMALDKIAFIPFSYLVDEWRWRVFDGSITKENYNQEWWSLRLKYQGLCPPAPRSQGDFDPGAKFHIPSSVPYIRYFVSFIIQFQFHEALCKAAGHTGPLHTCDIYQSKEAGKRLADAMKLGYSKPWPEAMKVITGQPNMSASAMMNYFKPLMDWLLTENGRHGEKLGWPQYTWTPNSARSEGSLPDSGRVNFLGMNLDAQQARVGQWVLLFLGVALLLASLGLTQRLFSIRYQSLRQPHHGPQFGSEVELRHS

Row | Compound | Inhibition of cathepsin B at 25 µM (in words) (cathepsin B) | Inhibition of cathepsin L at 25 µM (in words) (cathepsin L) | Inhibition of papain at 25 µM (in words) (papain) | Inhibition of trypsin at 25 µM (in words) (trypsin) | Inhibition of chymotrypsin at 25 µM (in words) (chymotrypsin) | Inhibition of SARS CoV-2 Mpro at 25 µM (in words) [1] | other results
1 | GWLYD (sidechain bridge or staple) [Y6W] | No inhibition was observed | No inhibition was observed | No inhibition was observed | No inhibition was observed | No inhibition was observed | No inhibition was observed | 
2 | NCC(=O)N[C@H]1Cc2ccc(O)c(c2)Oc2ccc(cc2)C[C@@H](C(=O)N[C@@H](CC(=O)O)C(=O)O)NC(=O)[C@H](Cc2ccc(O)cc2)NC1=O (single isomer, unassigned) [L7Y isomer-2] |  |  |  |  |  |  | IC50 (papain): 11700 nM
3 | fMRMGEGYLYD [ApyAct] |  |  |  |  |  |  | Conversion of substrate by ApyO (ApyO [2]): ~70%
4 | CC(C)C[C@@H]1NC(=O)[C@@H](NC(=O)CN)Cc2ccc(O)c(c2)-c2cc(ccc2O)C[C@@H](C(=O)N[C@@H](C)C(=O)C(=O)O)NC1=O [desmethylaminopyruvatide A] |  |  |  |  |  |  | IC50 (cathepsin B; 100 mM sodium phosphate pH 6.0, 1.33 mM EDTA, 2 mM DTT, 30 °C, 15 min preincubation at room temperature, fluorescence, readings every 60 s for 1 h, meaning of ± and n not given, read-out: IC50, inhibition of cathepsin B): 0.5 nM; IC50 (cathepsin L; 50 mM sodium acetate pH 5.5, 2.5 mM EDTA, 2.5 mM DTT, 30 °C, 15 min preincubation at room temperature, fluorescence, meaning of ± and n not given, read-out: IC50, inhibition of cathepsin L): 0.6 nM; IC50 (papain): 0.3 nM; Inhibition of trypsin (in words) (trypsin; test concentration not given): No inhibition; Inhibition of chymotrypsin (in words) (chymotrypsin; test concentration not given): No inhibition; Inhibition of SARS CoV-2 Mpro (in words) [1]: No inhibition; Protease inhibition, potency in words ([3]; Cys proteases / select proteases): nanomolar activity against Cys‐proteases; also recorded: subnanomolar inhibitory activity against clinically relevant Cys proteases; Specificity (in words) ([3]; cathepsin L, cathepsin B, papain versus trypsin, chymotrypsin, Mpro): specificity towards the papain family of Cys proteases
5 | N‐terminally acetylated‐GRMGEGYLYD [Ac-ApyAct] |  |  |  |  |  |  | Km (ApyO [4]): 80 ± 7 µM; kcat (ApyO [4]): 1.63 and 1.63 ± 0.04
6 | GYWYD (sidechain bridge or staple) [L7W isomer-2] | No inhibition was observed | No inhibition was observed | No inhibition was observed | No inhibition was observed | No inhibition was observed | No inhibition was observed | Inhibition of ACE at 25 µM (in words) [5]: weak inhibition; Inhibition of ACE at 25 µM ([5]; IC50 not determined): ~40%
7 | fMGEGYLYD |  |  |  |  |  |  | Modification by ApyO (in words) (ApyO [2]): did not result in product formation
8 | GYYYD (sidechain bridge or staple) [L7Y isomer-1] | No inhibition was observed | No inhibition was observed | No inhibition was observed | No inhibition was observed | No inhibition was observed | No inhibition was observed | 

— publication PMC13703928, “Substrate‐Dependent Crosslinking by the Cytochrome P450 From Aminopyruvatide Biosynthesis” (Angewandte Chemie (International Ed. in English), 2026)
